Laboratory results published in patent US20250114323A1, “METHODS OF REDUCING THE RISK OF CARDIOVASCULAR EVENTS IN PATIENTS WITH LEFT VENTRICULAR HYPERTROPHY” (LEXICON PHARMACEUTICALS, INC., priority 2023, published 2025).
Like-named read-outs stand apart in the source and are kept apart here.

Tests used:
[1] = system: patients with reported LVH and no reported hypertension; format: in vivo
[2] = system: patients with type 2 diabetes mellitus, chronic kidney disease, and risks for cardiovascular disease; format: in vivo
Description: A multicenter, double-blind clinical trial (SCORED) was conducted in which patients with type 2 diabetes mellitus (glycated hemoglobin level, ≥7%), chronic kidney disease (estimated glomerular filtration rate, 25 to 60 ml per minute per 1.73 m^2 of body-surface area), and risks for cardiovascular disease were randomly assigned in a 1:1 ratio to receive sotagliflozin or placebo. The primary end point was changed during the trial to the composite of the total number of deaths from cardiovascular causes, hospitalizations for heart failure, and urgent visits for heart failure.
Randomization was stratified according to criteria for heart failure (ejection fraction of ≤40% documented within the past year or hospitalization for heart failure during the previous 2 years) and geographic region (North America, Latin America, western Europe, eastern Europe, or rest of the world).
Persons 18 years of age or older with type 2 diabetes mellitus with a glycated hemoglobin level of 7% or higher, chronic kidney disease (eGFR, 25 to 60 ml per minute per 1.73 m^2 of body-surface area), and additional cardiovascular risk factors were enrolled. The risk factors consisted of at least one major cardiovascular risk factor in those 18 years of age or older or at least two minor cardiovascular risk factors in those 55 years of age or older. One exclusion criterion was any plan to start an SGLT2 inhibitor during the trial. Written informed consent was obtained from all the patients.
The original coprimary end points, assessed in time-to-event analyses, were the first occurrence of a major adverse cardiovascular event (MACE, defined as death from cardiovascular causes, non-fatal myocardial infarction, or nonfatal stroke) and the first occurrence of death from cardiovascular causes or hospitalization for heart failure (HHF). The primary end point was the total number of deaths from cardiovascular causes, hospitalizations for heart failure, and urgent visits for heart failure (UVHF).
The secondary end points were the total number of hospitalizations for heart failure and urgent visits for heart failure; deaths from cardiovascular causes; the total number of deaths from cardiovascular causes, hospitalizations for heart failure, nonfatal myocardial infarctions, and nonfatal strokes; the total number of deaths from cardiovascular causes, hospitalizations for heart failure, urgent visits for heart failure, and events of heart failure during hospitalization; the first occurrence of the composite of a sustained decrease of at least 50% in the eGFR from baseline for at least 30 days, long-term dialysis, renal trans-plantation, or a sustained eGFR of less than 15 ml per minute per 1.73 m^2 for at least 30 days; deaths from any cause; and the total number of deaths from cardiovascular causes, nonfatal myocardial infarctions, and nonfatal strokes. The use of total events allowed for a single patient to have more than one event contributing to the analysis. Subgroup analyses were prespecified.
All efficacy analyses followed the intention-to-treat principle. To allow for analyses of total events, competing-risk marginal models for recurrent events that were stratified according to heart-failure criteria and geographic region, with deaths not included in a given end point treated as competing terminal events, were applied to generate hazard ratios with Wald 95% confidence intervals and P values. Proportionality was confirmed by interaction terms between trial-group assignment and the logarithm of time. Event rates were summarized by the number of events per 100 patient-years of follow-up, and accrual of events over time was summarized by cumulative incidence functions.
Total events of myocardial infarction and total events of stroke were evaluated post hoc. Testing for differences between the two groups in adverse events was performed post hoc; P values were obtained from Pearson chi-square tests. […]

[3] = reported LVH and no reported hypertension, N = 217
[4] = reported LVH and no reported hypertension, sotagliflozin vs placebo
[5] = SCORED overall, sotagliflozin vs placebo
[6] = SCORED overall, sotagliflozin vs placebo, listed as sotagliflozin

CCOc1ccc(Cc2cc([C@@H]3O[C@H](SC)[C@@H](O)[C@H](O)[C@H]3O)ccc2Cl)cc1 [Sotagliflozin, (2S,3R,4R,5S,6R)-2-(4-chloro-3-(4-ethoxybenzyl)phenyl)-6-(methylthio) tetrahydro-2H-pyran-3,4,5-triol]
effect on the SCORED study's primary endpoint in the presence or absence of reported LVH or hypertension at baseline ([1]; FIG. 1, in words): consistent
Acute Kidney Injury, count ([1]; human, in vivo): 6
Acute Kidney Injury, figure in brackets ([1]; human, in vivo): 2.8
Any Malignancies of Special Interest, count ([1]; human, in vivo): 4
Any Malignancies of Special Interest, figure in brackets ([1]; human, in vivo): 1.8
Bone Fractures, count ([1]; human, in vivo): 7
Bone Fractures, figure in brackets ([1]; human, in vivo): 3.2
Diabetic Ketoacidosis, count ([1]; human, in vivo): 1
Diabetic Ketoacidosis, figure in brackets ([1]; human, in vivo): 0.5
Diarrhea, count ([1]; human, in vivo): 19
Diarrhea, figure in brackets ([1]; human, in vivo): 8.8
Genital Mycotic Infections, count ([1]; human, in vivo): 2
Genital Mycotic Infections, figure in brackets ([1]; human, in vivo): 0.9
Pancreatitis, count ([1]; human, in vivo): 1
Pancreatitis, figure in brackets ([1]; human, in vivo): 0.5
Severe Hypoglycemia, count ([1]; human, in vivo): 2
Severe Hypoglycemia, figure in brackets ([1]; human, in vivo): 0.9
Urinary Tract Infections, count ([1]; human, in vivo): 20
Urinary Tract Infections, figure in brackets ([1]; human, in vivo): 9.2
Venous Thrombotic Events, count ([1]; human, in vivo): 3
Venous Thrombotic Events, figure in brackets ([1]; human, in vivo): 1.4
Volume Depletion, count ([1]; human, in vivo): 10
Volume Depletion, figure in brackets ([1]; human, in vivo): 4.6
hazard ratio in patients with LVH without hypertension compared with the general population of patients at risk of cardiovascular events ([1]; in words): markedly lower
risk of CV events in patients with reported LVH and no reported hypertension ([1]; in words): significantly reduced
3-point MACE + HHF, event rate [1, 3]: 5.5 Events per 100 patient-years
3-point MACE, event rate [1, 3]: 3.1 Events per 100 patient-years
3-point MACE + HHF: Hazard Ratio (95% CI) [1, 4]: 0.46 (0.21, 0.99)
3-point MACE: Hazard Ratio (95% CI) [1, 4]: 0.52 (0.21, 1.28)
total hospitalizations ([2]; SCORED overall): 1923
total patient-years spanned by hospitalizations ([2]; SCORED overall): 104 patient-years
Deaths from any cause, event rate ([2]; SCORED overall, N = 5292): 3.5 Events/100 patient-years
Deaths from any cause, number of events ([2]; SCORED overall, N = 5292): 246 number of events
Deaths from cardiovascular causes, event rate ([2]; SCORED overall, N = 5292): 2.2 Events/100 patient-years
Deaths from cardiovascular causes, number of events ([2]; SCORED overall, N = 5292): 155 number of events
First occurrence of a sustained decrease of ≥50% in the eGFR from baseline for ≥30 days, long-term dialysis, renal transplantation, or sustained eGFR of <15 ml/min/1.73 m^2 for ≥30 days, event rate ([2]; SCORED overall, N = 5292): 0.5 Events/100 patient-years
First occurrence of the composite renal end point (sustained ≥50% eGFR decrease, long-term dialysis, renal transplantation, or sustained eGFR <15), number of events ([2]; SCORED overall, N = 5292): 37 number of events
Primary end point: total no. of deaths from cardiovascular causes, hospitalizations for HF, and urgent visits for HF, event rate ([2]; SCORED overall, N = 5292): 5.6 Events/100 patient-years
Primary end point: total no. of deaths from cardiovascular causes, hospitalizations for HF, and urgent visits for HF, number of events ([2]; SCORED overall, N = 5292): 400 number of events
Total no. of deaths from cardiovascular causes, hospitalizations for HF, nonfatal myocardial infarctions, and nonfatal strokes, event rate ([2]; SCORED overall, N = 5292): 7.6 Events/100 patient-years
Total no. of deaths from cardiovascular causes, hospitalizations for HF, nonfatal myocardial infarctions, and nonfatal strokes, number of events ([2]; SCORED overall, N = 5292): 541 number of events
Total no. of deaths from cardiovascular causes, hospitalizations for HF, urgent visits for HF, and events of HF during hospitalization, event rate ([2]; SCORED overall, N = 5292): 6.4 Events/100 patient-years
Total no. of deaths from cardiovascular causes, hospitalizations for HF, urgent visits for HF, and events of HF during hospitalization, number of events ([2]; SCORED overall, N = 5292): 453 number of events
Total no. of deaths from cardiovascular causes, nonfatal myocardial infarctions, and nonfatal strokes, event rate ([2]; SCORED overall, N = 5292): 4.8 Events/100 patient-years
Total no. of deaths from cardiovascular causes, nonfatal myocardial infarctions, and nonfatal strokes, number of events ([2]; SCORED overall, N = 5292): 343 number of events
Total no. of hospitalizations for HF and urgent visits for HF, event rate ([2]; SCORED overall, N = 5292): 3.5 Events/100 patient-years
Total no. of hospitalizations for HF and urgent visits for HF, number of events ([2]; SCORED overall, N = 5292): 245 number of events
composite renal end point, compared with placebo ([2]; SCORED overall, in words): did not differ significantly
risk of the composite of deaths from cardiovascular causes, hospitalizations for heart failure, and urgent visits for heart failure, compared with placebo ([2]; SCORED overall, in words): lower risk
Deaths from any cause: Hazard Ratio (95% CI) [2, 5]: 0.99 (0.83-1.18)
Deaths from cardiovascular causes: Hazard Ratio (95% CI) [2, 5]: 0.90 (0.73-1.12)
First occurrence of the composite renal end point: Hazard Ratio (95% CI) [2, 5]: 0.71 (0.46-1.08)
Original coprimary end point, first occurrence of death from cardiovascular causes or hospitalization for heart failure: hazard ratio [2, 5]: 0.77
Original coprimary end point, first occurrence of death from cardiovascular causes, nonfatal myocardial infarction, or nonfatal stroke: hazard ratio [2, 5]: 0.84
Primary end point: Hazard Ratio (95% CI) [2, 5]: 0.74 (0.63-0.88)
Total no. of deaths from cardiovascular causes, hospitalizations for HF, nonfatal myocardial infarctions, and nonfatal strokes: Hazard Ratio (95% CI) [2, 5]: 0.72 (0.63-0.83)
Total no. of deaths from cardiovascular causes, hospitalizations for HF, urgent visits for HF, and events of HF during hospitalization: Hazard Ratio (95% CI) [2, 5]: 0.76 (0.64-0.89)
Total no. of deaths from cardiovascular causes, nonfatal myocardial infarctions, and nonfatal strokes: Hazard Ratio (95% CI) [2, 5]: 0.77 (0.65-0.91)
Total no. of hospitalizations for HF and urgent visits for HF: Hazard Ratio (95% CI) [2, 5]: 0.67 (0.55-0.82)
Deaths from cardiovascular causes: Hazard Ratio (95% CI) [2, 6]: 0.90
Primary end point: Hazard Ratio (95% CI) [2, 6]: 0.74
Total no. of hospitalizations for HF and urgent visits for HF: Hazard Ratio (95% CI) [2, 6]: 0.67
acute kidney injury, percentage of patients ([2]; human, in vivo): 2.2%
diabetic ketoacidosis, percentage of patients ([2]; human, in vivo): 0.6%
diarrhea, percentage of patients ([2]; human, in vivo): 8.5%
genital mycotic infections, percentage of patients ([2]; human, in vivo): 2.4%
percentage of patients in whom hypertension developed ([2]; human, in vivo): 2.6%
percentage of patients in whom hypotension developed ([2]; human, in vivo): 2.6%
percentage of patients with a serious adverse event ([2]; human, in vivo): 23.4%
volume depletion, percentage of patients ([2]; human, in vivo): 5.3%
Diarrhea, genital mycotic infections, volume depletion, and diabetic ketoacidosis, frequency compared with placebo ([2]; in vivo): more common
bone fractures, urinary tract infections, severe hypoglycemia, acute kidney injury, or amputations, compared with placebo ([2]; in vivo): no significant between-group differences
percentage of patients with adverse events that occurred or worsened during the treatment period or with events leading to withdrawal of the trial regimen, compared with placebo ([2]; in vivo): no significant differences
